Target: ATP-dependent translocase ABCB1 (Mus musculus, UniProt P21447)
Test: TP_TRANSPORTER: increase in brain concentration in mdr1a(-/-) mouse
Type: functional, organism-based
Settings: in vivo

ATP-dependent translocase ABCB1, sequence (P21447 whole entry): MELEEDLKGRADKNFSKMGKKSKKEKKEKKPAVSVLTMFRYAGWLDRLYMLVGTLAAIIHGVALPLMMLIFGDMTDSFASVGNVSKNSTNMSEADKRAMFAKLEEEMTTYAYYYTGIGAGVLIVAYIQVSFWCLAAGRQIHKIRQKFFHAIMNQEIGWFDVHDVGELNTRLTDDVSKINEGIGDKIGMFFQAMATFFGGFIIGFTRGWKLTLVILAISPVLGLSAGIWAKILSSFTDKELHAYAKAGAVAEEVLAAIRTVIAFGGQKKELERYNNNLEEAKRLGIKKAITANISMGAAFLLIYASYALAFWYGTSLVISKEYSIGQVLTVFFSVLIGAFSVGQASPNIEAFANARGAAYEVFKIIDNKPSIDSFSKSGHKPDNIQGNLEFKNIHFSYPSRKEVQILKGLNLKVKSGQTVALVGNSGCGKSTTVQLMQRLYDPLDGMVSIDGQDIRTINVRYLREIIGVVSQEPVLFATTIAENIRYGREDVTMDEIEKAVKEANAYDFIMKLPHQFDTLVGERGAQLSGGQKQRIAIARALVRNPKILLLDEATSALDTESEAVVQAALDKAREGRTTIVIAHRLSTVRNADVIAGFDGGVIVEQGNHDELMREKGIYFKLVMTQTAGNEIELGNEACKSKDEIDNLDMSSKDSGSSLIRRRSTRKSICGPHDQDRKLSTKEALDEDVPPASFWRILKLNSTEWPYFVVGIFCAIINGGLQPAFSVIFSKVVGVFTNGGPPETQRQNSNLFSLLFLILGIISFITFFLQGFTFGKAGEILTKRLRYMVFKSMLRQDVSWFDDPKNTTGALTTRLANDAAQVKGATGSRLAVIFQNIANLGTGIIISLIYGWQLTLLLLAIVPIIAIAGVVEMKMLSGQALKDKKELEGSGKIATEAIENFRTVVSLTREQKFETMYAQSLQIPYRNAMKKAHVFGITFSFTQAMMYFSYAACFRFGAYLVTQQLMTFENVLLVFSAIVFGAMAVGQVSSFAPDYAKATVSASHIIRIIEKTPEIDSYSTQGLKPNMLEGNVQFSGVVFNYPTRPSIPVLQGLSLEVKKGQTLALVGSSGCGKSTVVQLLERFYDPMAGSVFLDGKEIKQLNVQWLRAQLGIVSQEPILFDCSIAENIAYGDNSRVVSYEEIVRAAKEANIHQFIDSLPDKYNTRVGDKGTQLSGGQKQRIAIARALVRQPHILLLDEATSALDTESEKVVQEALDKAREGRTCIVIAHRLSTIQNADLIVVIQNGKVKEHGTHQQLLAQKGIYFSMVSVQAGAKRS

SMILES: C/C=C/C[C@@H](C)C(=O)[C@H]1C(=O)N[C@@H](C(C)C)C(=O)N(C)CC(=O)N(C)[C@@H](CC(C)C)C(=O)N[C@@H](C(C)C)C(=O)N(C)[C@@H](CC(C)C)C(=O)N[C@@H](C)C(=O)N[C@H](C)C(=O)N(C)[C@@H](CC(C)C)C(=O)N(C)[C@@H](CC(C)C)C(=O)N(C)[C@@H](C(C)C)C(=O)N1C [VALSPODAR]
- Activity: substrate [+]

From ChEMBL document CHEMBL2074373, “Effect of the Mdr1a P-glycoprotein gene disruption on the tissue distribution of SDZ PSC 833, a multidrug resistance-reversing agent, in mice” (J Pharmacol Exp Ther, 1998)
